Consider 28 compounds from paper PMC7179439, “Synthesis and Structure-Activity Relationship Studies of Hydrazide-Hydrazones as Inhibitors of Laccase from Trametes versicolor” (Molecules, 2020).

As a reminder, the melting point is the temperature, or range, at which the solid turns liquid. As usually defined, the Ki is the equilibrium dissociation constant of an inhibitor or competing ligand from its target.

Data set [1] deals with laccase from Trametes versicolor. Nature of the data set: Laccase enzyme inhibition assay with syringaldazine as substrate. Type of data set: biochemical. On the set-up: key to The type of inhibition: a: competitive; b: uncompetitive; c: not determined; d: non-competitive. Particulars: for Ki: 25 °C, pH 5.3, syringaldazine substrate, 6.25% v/v organic co-solvent; for The type of inhibition / type of inhibition: Lineweaver-Burk transformation. As for the experimental part: The activity of laccase was determined using the procedure described by Leonowicz and Grzywnowicz. Basically, a standard reaction mixture contained the enzyme in McIlvaine buffer (1.5 mL, pH 5.3) in the presence or absence of tested compounds (0.1 mL) and substrate – syringaldazine (0.1 mL). Two water-miscible media were tested as suitable co-solvents for hydrazide-hydrazones which are poorly soluble in water. For that purpose, the stability of laccase (40 nM, McIlvaine buffer, pH 5.3) in methanol and DMSO (6.25% v/v) at 25 °C was investigated (see Supplementary Material). The samples containing the enzyme, with a volumetric buffer–co-solvent ratio of 15:1, were withdrawn in different time intervals for 1500 min. A reaction system contained the 1.6 mL of the collected sample and 0.1 mL of syringaldazine (5.9 µM). Laccase activity was determined spectrophotometrically (UV-VIS 1800, Shimadzu, Reinach, Switzerland) by monitoring the changes in absorbance at 525 nm resulted from oxidation of the substrate syringaldazine with an extinction coefficient ε0 = 65000 M^−1·cm^−1 [99]. Kinetic parameters, Km and k3 were determined for two protein concentrations (20 and 40 nM) and with the nine concentrations of syringaldazine (0.59 to 20 µM), using the Michaelis-Menten model, Equation (1):V = Vmax · CS/(Km + CS), k3 = Vmax/CE(1) where Km [µM], k3 [min^–1] – kinetic constants, Vmax – maximal velocity [µM·min^–1], CS – substrate concentration [µM], CE – enzyme concentration [µM].
The parameters of the function were estimated using the nonlinear least square method in Matlab (The Mathworks, R2019a Version 9.6, academic licence). The method was used simultaneously for datasets obtain for different enzyme concertation. The common minimum of error function was found for all considered datasets resulting in one common estimate of each model parameter. The goodness of fit was assessed using the coefficient of determination (R^2); the sum of squared errors (SSE) and root mean squared error (RMSE). The 25 hydrazide-hydrazones, 4-hydroxybenzoic acid (control, 4-HBA), 4-hydroxybenzohydrazide (4a – 4-HBAH), and sodium azide (control) were tested against laccase in the standard reaction mixture. Prior to the substrate addition, the laccase and tested compound were pre-incubated for 10 min at 25 °C. At least three inhibitor concentrations were used in each experiment. All measurements were performed in triplicate. To determine the type of inhibition Lineweaver–Burk transformation was used applying the following equations for competitive (2), uncompetitive (3) and non-competitive model (4). The parameters of these equations were estimated using the linear least square method. 1/V = Km/Vmax · (1 + Ci/Ki) · 1/CS + 1/Vmax(2) 1/V = Km/Vmax · 1/CS + 1/Vmax · (1 + Ci/Ki)(3) 1/V = Km/Vmax · (1 + Ci/Ki) · 1/CS + 1/Vmax · (1 + Ci/Ki)(4) where Km [µM]—Michaelis-Menten constant, Vmax—maximal velocity [µM·min^–1], Ki—inhibition constant [µM], CS—substrate concentration [µM], Ci—inhibitor concentration [µM].

Several values for one entry are separate records, joined by “and”; a condition that tells them apart may be missing. Equal entries are not always repeated.

`COc1cccc(/C=N/NC(=O)c2ccc(O)cc2)c1` (hydrate or solvate) [1i, 4-Hydroxy-N’-[(E)-(3-methoxyphenyl)methylidene]benzohydrazide]: the melting point lay within 210 to 212 °C.

As to `O=C(N/N=C/c1cccc(-c2ccccc2)c1O)c1ccc(O)cc1` (hydrate or solvate) [2a, 4-Hydroxy-N’-[(E)-(2-hydroxy-3-phenyl-phenyl)methylidene]benzohydrazide monomethanolate], the melting point lay within 215 to 218 °C.

As for `O=C(N/N=C/c1ccccc1)c1ccc(O)cc1` [1a, 4-Hydroxy-N’-[(E)-benzylidene]benzohydrazide], in data set [1], the Ki was found to be 1470 ± 58 µM and the “The type of inhibition” value is on record as “a”.

Compound `O=C(N/N=C/CCc1ccccc1)c1ccc(O)cc1` [1b, 4-Hydroxy-N’-[(E)-3-phenylpropylidene]benzohydrazide] displayed a melting point of 243.5 to 244 °C. In data set [1], the Ki worked out at 1920 ± 163 µM and the “The type of inhibition” value is recorded as “b”.

Consider `Cc1ccc(/C=N/NC(=O)c2ccc(O)cc2)cc1` [1c, 4-Hydroxy-N’-[(E)-(4-methylphenyl)methylidene]benzohydrazide monomethanolate], for which, in data set [1], the Ki was 251 ± 26 µM, the “The type of inhibition” value is recorded as “a” and the “type of inhibition” value is “competitive”.

In the case of `O=C(N/N=C/c1ccccc1S(=O)(=O)[O-])c1ccc(O)cc1.[Na+]` [1d, Sodium 2-{(E)-[2-(4-hydroxybenzoyl)hydrazinylidene]methyl}benzenesulfonate], the melting point is 251 °C (dec.). This compound also gave a Ki in data set [1] not below 2400 µM.

For the compound `O=C(N/N=C/c1ccccc1O)c1ccc(O)cc1` [1e, 4-Hydroxy-N’-[(E)-(2-hydroxyphenyl)methylidene]benzohydrazide], in data set [1], the inhibitory constant (Ki) stood at 674 ± 10 µM, the “The type of inhibition” value was “a” and the “type of inhibition” value was “competitive”.

On to `O.O=C(N/N=C/c1cccc(O)c1)c1ccc(O)cc1` [1f, 4-Hydroxy-N’-[(E)-(3-hydroxyphenyl)methylidene]benzohydrazide monohydrate], for which, in data set [1], affinity was put at a Ki of 2400 ± 334 µM and the “The type of inhibition” value is “a”.

For `O=C(N/N=C/c1ccc(O)cc1)c1ccc(O)cc1` [1g, 4-Hydroxy-N’-[(E)-(4-hydroxyphenyl)methylidene]benzohydrazide], in data set [1], the Ki is 638 ± 35 µM and the “The type of inhibition” value is recorded as “b”.

In the case of `COc1ccccc1/C=N/NC(=O)c1ccc(O)cc1` [1h, 4-Hydroxy-N’-[(E)-(2-methoxyphenyl)methylidene]benzohydrazide], in data set [1], the affinity corresponds to a Ki of 1060 ± 18 µM and the “The type of inhibition” value is reported as “a”.

In the case of `COc1cccc(/C=N/NC(=O)c2ccc(O)cc2)c1` [1i, 4-Hydroxy-N’-[(E)-(3-methoxyphenyl)methylidene]benzohydrazide], in data set [1], the Ki turned out to be 416 ± 1.5 µM, the “The type of inhibition” value was “a” and the “type of inhibition” value was “competitive”.

Take `O=C(N/N=C/c1cccc(-c2ccccc2)c1O)c1ccc(O)cc1` [2a, 4-Hydroxy-N’-[(E)-(2-hydroxy-3-phenyl-phenyl)methylidene]benzohydrazide monomethanolate]: in data set [1], the Ki is 25.3 ± 6.9 µM, the “The type of inhibition” value is on record as “a” and the “type of inhibition” value is reported as “competitive”.

Regarding `CC(C)(C)c1cccc(/C=N/NC(=O)c2ccc(O)cc2)c1O` [2b, 4-Hydroxy-N’-[(E)-(3-tert-butyl-2-hydroxyphenyl)methylidene]benzohydrazide], the melting point was in the range of 240 to 242 °C. In addition, in data set [1], affinity was put at a Ki of 24 ± 5.9 µM, the “The type of inhibition” value is given as “a” and the “type of inhibition” value is “competitive”.

In the case of `O=C(N/N=C/c1ccc(O)cc1O)c1ccc(O)cc1` [2c, 4-Hydroxy-N’-[(E)-(2,4-dihydroxyphenyl)methylidene]benzohydrazide], the melting point was 294 °C (dec.). Further, in data set [1], the “inhibitory potency towards laccase” value is “practically inactive”, the Ki was found to be 939 ± 30 µM, the “The type of inhibition” value was “b” and the “type of inhibition” value is “uncompetitive”.

The compound `O=C(N/N=C/c1cc(Br)ccc1O)c1ccc(O)cc1` [2d, 4-Hydroxy-N’-[(E)-(5-bromo-2-hydroxyphenyl)methylidene]benzohydrazide] had a melting point of 276 to 278 °C. In data set [1], this compound came in with a Ki not below 1000 µM.

For the compound `COc1cccc(O)c1/C=N/NC(=O)c1ccc(O)cc1` [2e, 4-Hydroxy-N’-[(E)-(6-methoxy-2-hydroxyphenyl)methylidene]benzohydrazide], the melting point lay in the range of 256.5 to 257.5 °C. The Ki in data set [1] was not below 1000 µM.

In turn, `COc1cccc(OC)c1/C=N/NC(=O)c1ccc(O)cc1` [2f, 4-Hydroxy-N’-[(E)-(2,6-dimethoxyphenyl)methylidene]benzohydrazide] gave a melting point of 214.5 to 216 °C. Moreover, in data set [1], the “inhibitory potency towards laccase” value is “practically inactive” and the Ki was not below 1000 µM.

In turn, `COc1cc(/C=N/NC(=O)c2ccc(O)cc2)ccc1O` [2g, 4-Hydroxy-N’-[(E)-(4-hydroxy-3-methoxyphenyl)methylidene]benzohydrazide] returned a melting point of 218.5 to 220 °C. Also, in data set [1], the Ki is 251 ± 38 µM, the “The type of inhibition” value was “a” and the “type of inhibition” value is recorded as “competitive”.

As to `COc1ccc(C(=O)N/N=C/c2cccc(-c3ccccc3)c2O)cc1` [2h, 4-Methoxy-N’-[(E)-2-hydroxy-3-phenyl-benzylidene]benzohydrazide], the melting point was in the range of 240 to 242.5 °C. This compound displayed a Ki in data set [1] not below 1000 µM.

The compound `Cc1cc(/C=N/NC(=O)c2ccc(O)cc2)c(O)c(CO)c1` [3a, 4-Hydroxy-N’-[(E)-2-hydroxy-3-hydroxymethyl-5-methyl-benzylidene]benzohydrazide] had a melting point of 229 to 230 °C. Also, the Ki in data set [1] was not below 1000 µM.

As for `Cc1cc(CO)cc(/C=N/NC(=O)c2ccc(O)cc2)c1O` [3b, 4-Hydroxy-N’-[(E)-(5-hydroxymethyl-3-methyl-2-hydroxyphenyl)methylidene]benzohydrazide], the melting point is 266 °C (dec.). In data set [1], this compound gave an inhibitory constant (Ki) not below 1000 µM.

`CC(C)(C)c1cc(/C=N/NC(=O)c2ccc(O)cc2)c(O)c(C(C)(C)C)c1` [3c, 4-Hydroxy-N’-[(E)-(3,5-di-tert-butyl-2-hydroxyphenyl)methylidene]benzohydrazide] yielded a melting point of 274.5 to 275.5 °C. Further, in data set [1], the affinity, expressed as Ki, was 17.9 ± 1.3 µM and the “The type of inhibition” value was “b”.

On to `Cc1cc(/C=N/NC(=O)c2ccc(O)cc2)c(O)c(C(C)(C)C)c1` [3d, 4-Hydroxy-N’-[(E)-3-tert-butyl-2-hydroxy-5-methylbenzylidene]benzohydrazide], for which the melting point was 261 to 263 °C and 261 to 262 °C. In addition, in data set [1], the Ki worked out at 26.4 ± 3.4 µM, the “The type of inhibition” value is reported as “a” and the “type of inhibition” value is reported as “competitive”.

With `Cc1ccc(C(C)C)c(O)c1/C=N/NC(=O)c1ccc(O)cc1` [3e, 4-Hydroxy-N’-[(E)-(2-hydroxy-3-isopropyl-6-methylphenyl)methylidene]benzohydrazide], the melting point lay in the range of 258.5 to 260.5 °C. In addition, the Ki in data set [1] was not below 1000 µM.

The compound `COc1cc(O)c(/C=N/NC(=O)c2ccc(O)cc2)c(OC)c1` [3f, 4-Hydroxy-N’-[(E)-(2-hydroxy-4,6-dimethoxyphenyl)methylidene]benzohydrazide] showed a melting point of 231.5 to 234.5 °C. The same compound displayed an inhibition constant (Ki) in data set [1] not below 1000 µM.

Turning to `Cc1cc(/C=N/NC(=O)c2cccc(O)c2)c(O)c(C(C)(C)C)c1` [3g, 3-Hydroxy-N’-[(E)-(3-tert-butyl-2-hydroxy-5-methylphenyl)methylidene]benzohydrazide], the melting point lay within 240 to 242.5 °C. Also, in data set [1], the affinity, expressed as Ki, was 32 ± 8 µM; the “The type of inhibition” value is “d”; the “type of inhibition” value was “non-competitive”.

With `O=C(O)c1ccc(O)cc1` [4-HBA, 4-hydroxybenzoic acid, reference compound], in data set [1], the “inhibitory potency towards laccase” value was “no inhibitory potency” and the Ki is not below 2400 µM.

As to `COc1ccc(C(=O)NN)cc1` [4b, reference compound], in data set [1], the “inhibitory potency towards laccase” value is reported as “no inhibitory potency” and the Ki was not below 2400 µM.
